Source: patent publication US11274092B2, “Potassium channel inhibitors” (ACESION PHARMA ApS, priority 2016, dated 2022)

target: T1, human SK3 channel (hKCa2.3) (Homo sapiens, UniProt Q9UGI6); experiment: Automated whole cell patch-clamp (QPatch 16 HT), inhibition of SK3 current; format: cell-based; details: HEK-293 cells stably expressing hKCa2.3; symmetrical K+ solutions, free calcium 400 nM; effects normalized to N-methyl bicuculline
T1 construct: expressed in transfected cells
In short: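 HEK-293 cells stably expressing hKCa2.3, automated whole-cell patch clamp in symmetrical K+ (400 nM free intracellular Ca2+, pH 7.2; external pH 7.4). Held at 0 mV, ramps −80 to +80 mV (200 ms) every 5 s; increasing compound concentrations, currents run-down corrected and normalized to 100 μM N-methyl bicuculline; IC50 reported.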

SMILES	IC50 [µM]
CNCCN(C)C(=O)CC(Nc1nc2ccccc2[nH]1)c1cccc(C(F)(F)F)c1 (stereo not shown) [Example 44, 3-[(1H-1,3-benzodiazol-2-yl)amino]-N-methyl-N-[2-(methylamino)ethyl]-3-[3-(trifluoromethyl)phenyl]propanamide]	10 to 100
O=C(CC(Nc1nc2ccccc2[nH]1)c1cccc(C(F)(F)F)c1)NCC1CCCO1 (stereo not shown) [Example 8, 3-[(1H-1,3-benzodiazol-2-yl)amino]-N-(oxolan-2-ylmethyl)-3-[3-(trifluoromethyl)phenyl]propanamide]	< 10
CCN(CCO)C(=O)CC(Nc1nc2ccccc2[nH]1)c1cccc(C(F)(F)F)c1 (single isomer, unassigned; (-)) [Example 41a, (−)3-[(1H-1,3-benzodiazol-2-yl)amino]-N-ethyl-N-(2-hydroxyethyl)-3-[3-(trifluoromethyl)phenyl]propanamide]	< 10
CN1CCN(C(=O)CC(Nc2nc3ccccc3[nH]2)c2cccc(C(F)(F)F)c2)CC1=O (stereo not shown) [Example 11, 4-{3-[(1H-1,3-benzodiazol-2-yl)amino]-3-[3-(trifluoromethyl)phenyl]propanoyl}-1-methylpiperazin-2-one]	10 to 100
CCN(CCO)C(=O)CC(Nc1nc2ccccc2[nH]1)c1cccc(C(F)(F)F)c1 (stereo not shown) [Example 41, 3-[(1H-1,3-benzodiazol-2-yl)amino]-N-ethyl-N-(2-hydroxy-ethyl)-3-[3-(trifluoromethyl)phenyl]propanamide]	< 10
CN(CCCO)C(=O)CC(Nc1nc2ccccc2[nH]1)c1cccc(C(F)(F)F)c1 (stereo not shown) [Example 17, 3-[(1H-1,3-benzodiazol-2-yl)amino]-N-(3-hydroxypropyl)-N-methyl-3-[3-(trifluoromethyl)phenyl]propanamide]	< 10
O=C(CC(Nc1nc2ccccc2[nH]1)c1cccc(C(F)(F)F)c1)NC1COC1 (stereo not shown) [Example 10, 3-[(1H-1,3-benzodiazol-2-yl)amino]-N-(oxetan-3-yl)-3-[3-(trifluoromethyl)phenyl]propanamide]	< 10
O=C(CC(Nc1nc2ccccc2[nH]1)c1cccc(C(F)(F)F)c1)N[C@H]1CCOC1 (stereo partly drawn) [Example 9, 3-[(1H-1,3-benzodiazol-2-yl)amino]-N-[(3S)-oxolan-3-yl]-3-[3-(trifluoromethyl)phenyl]propanamide]	< 10
CCN(CCO)C(=O)C(Nc1nc2ccccc2[nH]1)c1cccc(C(F)(F)F)c1 (single isomer, unassigned; (-)) [Example 38a, (−)2-[(1H-1,3-benzodiazol-2-yl)amino]-N-ethyl-N-(2-hydroxyethyl)-2-[3-(trifluoromethyl)phenyl]acetamide]	< 10
CN(C)CCN(C)C(=O)CC(Nc1nc2ccccc2[nH]1)c1cccc(C(F)(F)F)c1 (stereo not shown) [Example 2, 3-[(1H-1,3-benzodiazol-2-yl)amino]-N-[2-(dimethylamino)ethyl]-N-methyl-3-[3-(trifluoromethyl)phenyl]propanamide]	10 to 100
O=C(C(Nc1nc2ccccc2[nH]1)c1cccc(C(F)(F)F)c1)N1CCCCC1 (stereo not shown) [Example 31, 2-[(1H-1,3-benzodiazol-2-yl)amino]-1-(piperidin-1-yl)-2-[3-(trifluoromethyl)phenyl]ethan-1-one]	< 10
CCN(CCO)C(=O)CC(Nc1nc2ccccc2[nH]1)c1ccc(Cl)c(C)c1 (single isomer, unassigned; (+)) [Example 40b, (+)3-[(1H-1,3-benzodiazol-2-yl)amino]-3-(4-chloro-3-methylphenyl)-N-ethyl-N-(2-hydroxyethyl)propanamide]	10 to 100
O=C(CC(Nc1nc2ccccc2[nH]1)c1cccc(C(F)(F)F)c1)N1CC(O)C1 (stereo not shown) [Example 6, 3-[(1H-1,3-benzodiazol-2-yl)amino]-1-(3-hydroxyazetidin-1-yl)-3-[3-(trifluoromethyl)phenyl]propan-1-one]	< 10
C[N+]1(C)CCN(C(=O)C(Nc2nc3ccccc3[nH]2)c2cccc(C(F)(F)F)c2)CC1 (stereo not shown) [Example 37, 4-{2-[(1H-1,3-benzodiazol-2-yl)amino]-2-[3-(trifluoromethyl)phenyl]acetyl}-1,1-dimethylpiperazin-1-ium iodide]	10 to 100

Other lines, results leading:

IC50 [µM]	SMILES
10 to 100	CCN(CC#N)C(=O)CC(Nc1nc2c(CCO)cccc2[nH]1)c1cccc(C(F)(F)F)c1 (stereo not shown) [Example 52, N-(cyanomethyl)-N-ethyl-3-{[4-(2-hydroxyethyl)-1H-1,3-benzodiazol-2-yl]amino}-3-[3-(trifluoromethyl)phenyl]propanamide]
< 10	CN(CC#N)C(=O)CC(Nc1nc2ccccc2[nH]1)c1cccc(C(F)(F)F)c1 (single isomer, unassigned; (-)) [Example 56a, (−)3-[(1H-1,3-benzodiazol-2-yl)amino]-N-(cyanomethyl)-N-methyl-3-[3-(trifluoromethyl)phenyl]propanamide]
< 10	COC(=O)CNC(=O)CC(Nc1nc2ccccc2[nH]1)c1cccc(C(F)(F)F)c1 (stereo not shown) [Example 59, Methyl 2-{3-[(1H-1,3-benzodiazol-2-yl)amino]-3-[3-(trifluoromethyl)phenyl]propanamido}acetate]
< 10	O=C(CC(Nc1nc2c(CO)cccc2[nH]1)c1cccc(C(F)(F)F)c1)NCCOC(F)(F)F (stereo not shown) [Example 94, 3-{[4-(hydroxymethyl)-1H-1,3-benzodiazol-2-yl]amino}-N-[2-(trifluoromethoxy)ethyl]-3-[3-(trifluoromethyl)phenyl]propanamide]
< 10	Cc1ncc(CNC(=O)CC(Nc2nc3ccccc3[nH]2)c2cccc(C(F)(F)F)c2)s1 (stereo not shown) [Example 77, 3-[(1H-1,3-benzodiazol-2-yl)amino]-N-[(2-methyl-1,3-thiazol-5-yl)methyl]-3-[3-(trifluoromethyl)phenyl]propanamide]
< 10	CCc1cc(C(CC(=O)N(CC)CCO)Nc2nc3ccccc3[nH]2)ccc1F (stereo not shown) [Example 65, 3-[(1H-1,3-benzodiazol-2-yl)amino]-N-ethyl-3-(3-ethyl-4-fluorophenyl)-N-(2-hydroxyethyl)propanamide]
< 10	CCN(CC(=O)OC)C(=O)CC(Nc1nc2ccccc2[nH]1)c1cccc(C(F)(F)F)c1 (stereo not shown) [Example 47, Methyl 2-{3-[(1H-1,3-benzodiazol-2-yl)amino]-N-ethyl-3-[3-(trifluoromethyl)phenyl]propanamido}acetate]
< 10	CCN(CC(N)=O)C(=O)CC(Nc1nc2c(CO)cccc2[nH]1)c1cccc(C(F)(F)F)c1 (stereo not shown) [Example 54, N-(carbamoylmethyl)-N-ethyl-3-{[4-(hydroxymethyl)-1H-1,3-benzodiazol-2-yl]amino}-3-[3-(trifluoromethyl)phenyl]propanamide]
< 10	O=C(CC(Nc1nc2ccccc2[nH]1)c1cccc(OC(F)(F)F)c1)NCc1ccon1 (stereo not shown) [Example 88, 3-[(1H-1,3-benzodiazol-2-yl)amino]-N-(1,2-oxazol-3-ylmethyl)-3-[3-(trifluoromethoxy)phenyl]propanamide]
< 10	COCCNC(=O)CC(Nc1nc2ccccc2[nH]1)c1cc(C)c(F)c(C)c1 (stereo not shown) [Example 80, 3-[(1H-1,3-benzodiazol-2-yl)amino]-3-(4-fluoro-3,5-dimethylphenyl)-N-(2-methoxyethyl)propanamide]
< 10	O=C(CC(Nc1nc2ccccc2[nH]1)c1cccc(C(F)(F)F)c1)NCCOCC(F)(F)F (single isomer, unassigned) [Example 68a, 3-[(1H-1,3-benzodiazol-2-yl)amino]-N-[2-(2,2,2-trifluoroethoxy)ethyl]-3-[3-(trifluoromethyl)phenyl]propanamide]
